# From ChEMBL document CHEMBL4130444, “1,4-Naphthoquinones as inhibitors of Itch, a HECT domain-E3 ligase, and tumor growth suppressors in multiple myeloma” (Eur J Med Chem, 2017)
# Calls of active or inactive are those of the source. The rule behind the calls is not given here.
# Tests used:
# [1] = test system: HCT-116; assay: Antiproliferative activity against human HCT116 cells incubated for 48 hrs by SRB assay; format: functional; settings: HCT-116, 48 h
# [2] = test system: MDA-MB-231; assay: Antiproliferative activity against human MDA-MB-231 cells incubated for 48 hrs by SRB assay; format: functional; settings: MDA-MB-231, 48 h
# [3] = Antiproliferative activity against human hepatocytes incubated for 48 hrs by SRB assay; format: cell-based, Hepatocyte
# [4] = Antiproliferative activity against HUVEC incubated for 48 hrs by SRB assay; format: cell-based; settings: human, HUVEC cells
# [5] = Antiproliferative activity against NHDF incubated for 48 hrs by SRB assay; format: cell-based; settings: human, NHDF cells
# [6] = test system: ASPC1; assay: Antiproliferative activity against human AsPC1 cells incubated for 48 hrs by SRB assay; format: functional; settings: ASPC1, 48 h
# [7] = test system: BXPC-3; assay: Antiproliferative activity against human BxPC3 cells incubated for 48 hrs by SRB assay; format: functional; settings: BXPC-3, 48 h
# [8] = test system: HT-29; assay: Antiproliferative activity against human HT-29 cells incubated for 48 hrs by SRB assay; format: functional; settings: HT-29, 48 h
# [9] = test system: REH; assay: Antiproliferative activity against human REH cells incubated for 48 hrs by SRB assay; format: functional
# [10] = test system: MCF7; assay: Antiproliferative activity against human MCF7 cells incubated for 48 hrs by SRB assay; format: functional; settings: MCF7, 48 h
# [11] = test system: SK-MEL-5; assay: Antiproliferative activity against human SK-MEL-5 cells incubated for 48 hrs by SRB assay; format: functional; settings: SK-MEL-5, 48 h
# [12] = Antiproliferative activity against human ZR-75 cells incubated for 48 hrs by SRB assay; format: functional; settings: ZR75, 48 h
# [13] = test system: KB; assay: Antiproliferative activity against human KB cells incubated for 48 hrs by SRB assay; format: functional
# [14] = test system: Ramos; assay: Antiproliferative activity against human Ramos cells incubated for 48 hrs by SRB assay; format: functional
# [15] = Antiproliferative activity against human 33HJ-JA1 cells incubated for 48 hrs by SRB assay; format: functional
# [16] = test system: A549; assay: Antiproliferative activity against human A549 cells incubated for 48 hrs by SRB assay; format: functional; settings: A549, 48 h
# [17] = test system: NCI-H460; assay: Antiproliferative activity against human NCI-H460 cells incubated for 48 hrs by SRB assay; format: functional; settings: NCI-H460, 48 h
# [18] = test system: PC-6; assay: Antiproliferative activity against human PC6 cells incubated for 48 hrs by SRB assay; format: functional; settings: PC-6, 48 h
# [19] = test system: OVCAR-4; assay: Antiproliferative activity against human OVCAR4 cells incubated for 48 hrs by SRB assay; format: functional; settings: OVCAR-4, 48 h
# [20] = test system: OVCAR-3; assay: Antiproliferative activity against human OVCAR3 cells incubated for 48 hrs by SRB assay; format: functional; settings: OVCAR-3, 48 h
# [21] = test system: PC-3; assay: Antiproliferative activity against human PC3 cells incubated for 48 hrs by SRB assay; format: functional; settings: PC-3, 48 h
# [22] = target: E3 ubiquitin-protein ligase Itchy homolog (Homo sapiens) (UniProt Q96J02); assay: Inhibition of Itch (unknown origin) assessed as reduction in Itch-mediated ubiquitination in presence of E1 enzyme, E2 enzyme and ATP incubated for 20 mins by SDS-PAGE method
# [23] = test system: RPMI-8226; assay: Antiproliferative activity against human RPMI8226 cells incubated for 48 hrs by SRB assay; format: functional, cell-based; settings: RPMI-8226, 48 h
# [24] = test system: RPMI-8226; assay: Reduction of Itch protein expression in human RPMI8226 cells at 10 uM by Western blot; format: functional, cell-based
# [25] = test system: RPMI-8226; assay: Antitumor activity against human RPMI8226 cells xenografted in SCID nude mouse assessed as inhibition of tumor growth at 25 mg/kg, po dosed daily for 45 days; format: functional; settings: RPMI-8226, po, 1080 h, read-out: TGI
# [26] = test system: RPMI-8226; assay: Antitumor activity against human RPMI8226 cells xenografted in SCID nude mouse assessed as inhibition of tumor growth at 50 mg/kg, po dosed daily for 45 days; format: functional; settings: RPMI-8226, po, 1080 h, read-out: TGI
# [27] = test system: Mus musculus; assay: Toxicity in human RPMI8226 cells xenografted SCID nude mouse assessed as effect on body weight at 25 mg/kg, po dosed daily for 45 days; format: organism-based; settings: in vivo, 1080 h
# [28] = test system: Mus musculus; assay: Toxicity in human RPMI8226 cells xenografted SCID nude mouse assessed as effect on body weight at 50 mg/kg, po dosed daily for 45 days; format: organism-based; settings: in vivo, 1080 h
# [29] = test system: Mus musculus; assay: Toxicity in human RPMI8226 cells xenografted SCID nude mouse assessed as induction of adverse events at 25 mg/kg, po dosed daily for 45 days; format: organism-based; settings: in vivo, 1080 h
# [30] = test system: Mus musculus; assay: Toxicity in human RPMI8226 cells xenografted SCID nude mouse assessed as induction of adverse events at 50 mg/kg, po dosed daily for 45 days; format: organism-based; settings: in vivo, 1080 h
# [31] = species on record: Homo sapiens; assay: Inhibition of UBE1/UbcH3/SCFSkp2/Cks1/p27 (unknown origin) assessed as protein activity at […] by electrochemiluminescence based ubiquitin profiler panel assay; parameters: scale not given: the % may be the effect or the level left
# [32] = species on record: Homo sapiens; assay: Inhibition of UBE1/UbcH3/SCFFbw7/Cyclin E1 (unknown origin) assessed as protein activity at […] by electrochemiluminescence based ubiquitin profiler panel assay; parameters: scale not given: the % may be the effect or the level left
# Sequence of E3 ubiquitin-protein ligase Itchy homolog (Homo sapiens) (Q96J02 whole entry): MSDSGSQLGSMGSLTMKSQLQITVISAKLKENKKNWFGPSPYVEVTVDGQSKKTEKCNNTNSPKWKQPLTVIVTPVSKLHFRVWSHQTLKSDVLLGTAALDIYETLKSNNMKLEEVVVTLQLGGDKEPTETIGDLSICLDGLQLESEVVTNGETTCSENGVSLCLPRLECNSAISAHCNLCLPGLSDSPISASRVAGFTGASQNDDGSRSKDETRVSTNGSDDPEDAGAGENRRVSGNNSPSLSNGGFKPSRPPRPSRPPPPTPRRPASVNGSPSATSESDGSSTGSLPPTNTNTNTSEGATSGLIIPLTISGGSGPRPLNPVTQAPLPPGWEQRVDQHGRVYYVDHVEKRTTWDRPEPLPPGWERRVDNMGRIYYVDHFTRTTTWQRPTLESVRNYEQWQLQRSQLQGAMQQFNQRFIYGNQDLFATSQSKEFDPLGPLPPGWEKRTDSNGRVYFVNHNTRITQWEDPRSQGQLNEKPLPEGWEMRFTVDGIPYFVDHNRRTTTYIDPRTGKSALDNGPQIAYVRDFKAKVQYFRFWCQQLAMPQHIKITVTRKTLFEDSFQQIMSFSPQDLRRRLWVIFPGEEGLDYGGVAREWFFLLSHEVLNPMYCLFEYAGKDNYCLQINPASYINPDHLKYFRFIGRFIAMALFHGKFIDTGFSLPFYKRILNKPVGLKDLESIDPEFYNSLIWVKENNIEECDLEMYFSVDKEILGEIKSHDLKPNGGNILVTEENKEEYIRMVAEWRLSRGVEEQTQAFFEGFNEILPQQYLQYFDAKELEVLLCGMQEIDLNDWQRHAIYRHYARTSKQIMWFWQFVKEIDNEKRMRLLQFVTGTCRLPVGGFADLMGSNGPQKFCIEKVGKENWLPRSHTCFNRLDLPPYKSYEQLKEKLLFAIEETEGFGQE
structure (smiles),measurement,setting,value
O=C(Nc1ccncc1)c1ccc(CNC2=C(Cl)C(=O)c3ccccc3C2=O)cc1,GI50,[1],4300 nM
same,GI50,[2],2900 nM
same,GI50 at 48 h,[3],30000 nM
same,GI50 at 48 h,[4],16000 nM
same,GI50 at 48 h,[5],6300 nM
same,GI50,[6],4600 nM
same,GI50,[7],1200 nM
same,GI50,[8],3800 nM
same,GI50,[9],2800 nM
same,GI50,[10],900 nM
same,GI50,[11],210 nM
same,GI50,[12],> 5000 nM
same,GI50,[13],4000 nM
same,GI50,[14],890 nM
same,GI50,[15],1900 nM
same,GI50,[16],> 5000 nM
same,GI50,[17],2900 nM
same,GI50,[18],1800 nM
same,GI50,[19],1400 nM
same,GI50,[20],1900 nM
same,GI50,[21],2500 nM
same,inhibition,[22],Dose-dependent effect
same,IC50,[23],2600 nM
same,Activity,[24],Active
same,inhibition in vivo at 25 mg/kg,[25],98.3%
same,inhibition in vivo at 50 mg/kg,[26],100%
same,Activity,[27],Non-Toxic
same,Activity,[28],Non-Toxic
same,Activity,[29],Non-Toxic
same,Activity,[30],Non-Toxic
same,Activity,[31],85%
same,Activity,[32],104%
